Laboratory results: patent US7691966B2, “Method for quantitative analysis for prolyl hydroxylase activity using fluorescence polarization” (Korea Institute of Science and Technology, priority 2005, dated 2010)

Columns and labels:
[1] = target: T1, VBC protein (Homo sapiens, UniProt P40337); experiment: Fluorescence polarization competition assay for inhibitors of F-HyP564 peptide-VBC protein binding; settings: 100 nM F-HyP564, 500 nM VBC, competitor 0 to 500 μM
T1 construct: made in house; host or cells: E. coli BL21 (DE3)
Experimental: (§1) Fluorescence polarization changes were measured during the formation of protein-ligand complex of VBC protein and the above peptides prepared in Example 1, to investigate binding capacity and characteristics thereof. Fluorescence polarization was measured by using fluorometer (Perkin-Elmer), and the size of slit was 5 nm and integration time was 5 seconds. A buffer solution containing 50 mM Tris and 120 mM NaCl, pH 8.0, was supplemented with NP-40 (nonidet P40) by 0.5%, for being utilized for the experiments of binding and interaction.
Fluorescence polarization of the reaction solution was measured.
After mixing, fluorescence polarization changes were measured.

[2] = target: T1, VBC protein; experiment: Fluorescence polarization binding of fluorescent labeled HIF-1 peptide to VBC protein
Source text: Human von Hippel-Lindau gene fragment (corresponding to 54˜213 a.a. region of the amino acid sequence represented by GenBank Accession No: NM000551) and human Elongin B fragment (corresponding to 1˜118 a.a. region of the amino acid sequence represented by GenBank Accession No: NM007108) were inserted into a modified pGEX-4T-1, resulting in plasmid pGEX4T-VHL-EB. Likewise, human Elongin C fragment (corresponding to 17˜112 a.a. region of the amino acid sequence represented by GenBank Accession No: NM005648) was inserted into pET29b vector, resulting in plasmid PDEV-EC (Novagen). The plasmids were co-expressed massively in E. coli BL21 (DE3) (Novagen).
as §1
After mixing, fluorescence polarization was measured.

Row | Compound | fluorescence polarization change on addition of competitor peptide [1] | other results
1 | DDDFQLR [C] | only a slight decrease | 
2 | F-P564: FITC-aminocaproic acid-labeled HIF-1α 556-575 peptide without hydroxyproline, SEQ ID NO:1 |  | fluorescence polarization value ([2]; 100 nM peptide, 800 nM VBC protein, 25° C.): 0.066
3 | CC[C@H](C)[C@H](NC(=O)[C@H](Cc1ccc(O)cc1)NC(=O)[C@@H]1C[C@@H](O)CN1C(=O)[C@H](C)NC(=O)[C@H](CC(C)C)NC(=O)[C@H](C)NC(=O)[C@H](CCC(=O)O)NC(=O)[C@H](CC(C)C)NC(=O)[C@H](CC(=O)O)NC(=O)[C@H](CC(C)C)NC(=O)[C@H](CC(=O)O)NC(=O)CCCCCNC(=S)Nc1ccc2c(c1)C(=O)OC21c2ccc(O)cc2Oc2cc(O)ccc21)C(=O)N1CCC[C@H]1C(=O)N[C@@H](C)C(=O)N[C@@H](CC(=O)O)C(=O)N[C@@H](CC(=O)O)C(=O)N[C@@H](CC(=O)O)C(=O)N[C@@H](Cc1ccccc1)C(=O)N[C@@H](CCC(N)=O)C(=O)N[C@@H](CC(C)C)C(=O)N[C@@H](CCCNC(=N)N)C(=O)O [F-HyP564] |  | fluorescence polarization of reactant with VBC protein compared with probe itself ([2]; reacted with VBC protein at 25° C.): remarkably increased

Now from value to compound, other results behind:

Row | fluorescence polarization change on addition of competitor peptide [1] | Compound | other results
4 | only a slight decrease | ALAPYIPA [N] | 
5 | remarkably decreased | CC[C@H](C)[C@H](NC(=O)[C@H](Cc1ccc(O)cc1)NC(=O)[C@@H]1C[C@@H](O)CN1C(=O)[C@H](C)NC(=O)[C@H](CC(C)C)NC(=O)[C@H](C)N)C(=O)N1CCC[C@H]1C(=O)N[C@@H](C)C(=O)O [Hy-N fragment, ALAHyPYIPA] | 
